The experiment deals with Substance-P receptor (Homo sapiens, UniProt P25103). Kind of experiment: In vitro binding affinity against human NK1 receptor expressed in CHO cells using [3H]-substance P as radioligand. The format is cell-based.
Substance-P receptor, sequence (P25103 whole entry): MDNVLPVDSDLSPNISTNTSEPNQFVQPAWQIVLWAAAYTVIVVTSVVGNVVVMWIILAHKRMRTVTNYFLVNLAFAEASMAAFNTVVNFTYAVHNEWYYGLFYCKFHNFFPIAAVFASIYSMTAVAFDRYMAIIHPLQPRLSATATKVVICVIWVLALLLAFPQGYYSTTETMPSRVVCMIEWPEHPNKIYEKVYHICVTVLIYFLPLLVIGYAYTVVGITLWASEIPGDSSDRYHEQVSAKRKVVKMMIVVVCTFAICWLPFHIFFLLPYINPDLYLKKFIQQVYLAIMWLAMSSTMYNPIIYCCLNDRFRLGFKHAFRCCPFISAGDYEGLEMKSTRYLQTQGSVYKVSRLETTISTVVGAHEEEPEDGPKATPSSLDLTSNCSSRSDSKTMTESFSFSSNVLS

A word on the Ki: it is a measure of affinity in units of concentration, obtained from inhibition or displacement. In turn, `COc1ccc(C(=O)c2ccccc2)cc1CN[C@H]1CCCN[C@H]1c1ccccc1` had a Ki of 0.398 nM. `COc1ccc(C2(C(F)(F)F)N=N2)cc1CN[C@H]1CCCN[C@H]1c1ccccc1` showed a Ki of 0.794 nM.
